Tests used:
[1] = molecular target: T1, IDO1 (Homo sapiens, UniProt P14902); assay: Hela cell-based IDO1 functional assay (kynurenine readout, IFN-γ induced); conditions: Hela cells, 100 ng/ml human IFN-γ, 18 h; Table 1 and text
T1 construct: host or cells: HeLa cells, IDO1 induced with 100 ng/ml human IFN-γ
Experimental: To perform the Hela cell based IDO1 assay, Hela cells were seeded at 50,000 cells per well into 96-well microplate in 100 μl of DMEM 10% fetal bovine serum 1% Penicillin-Streptomycin. Cells were incubated at 37°C and 5% CO2 overnight.
The next day 100 μl per well of diluted inhibitor in growth medium was added at a final concentration of 100 ng/ml human IFN-γ. Cells were incubated at 37°C in a CO2 incubator for 18 h. The next day 140 μl of medium was moved into a new 96-well plate and 20 μl of 3.05 N trichloroacetic acid (TCA) was added. The plate was incubated at 50°C for 30 min to hydrolyze N-formylkynurenine. The plate was then centrifuged at 2,500 rpm for 10 min to remove sediments. 100 μl of supernatant per well was transferred to another 96-well plate and mixed with 100 μl of 2% (w/v) 4-(Dimethylamino)benzaldehyde in acetic acid. The plate was incubated at room temperature for 10 min, the yellow color derived from kynurenine was recorded by measuring absorbance at 480 nm using a microplate reader (PerkinElmer, USA).
To investigate the IDO1 inhibition activities of the synthesized derivatives, all the new compounds and icotinib were screened via Hela cell-based functional assay using methods described in the literature ([Yue et al., 2009]; [Malachowski et al., 2016]; [Qian et al., 2016]).

[2] = tested on: Human renal epithelial cell (293T); assay: Cytotoxicity assay, Cell Counting Kit-8 (CCK8), 72 h; assay type: cell-based; conditions: HEK-293T, 293T cells, CCK-8, 72 h
Experimental: Cytotoxity of the chosen compounds was evaluated by the Cell Counting Kit-8 (CCK8, DOJINDO, Japan) assay. The cells were seeded at a density of 2,000 cells per well into 96-well microplate in 100 μl of growth medium. Cells were incubated at 37°C and 5% CO2 overnight. The next day, 100 μl per well of diluted inhibitor in growth medium was added with the final concentration from 0.1nM to 100 μM. The cells were treated with DMSO as control. A series of dilutions were made in 0.1% DMSO in assay medium so that the final concentration of DMSO was 0.1% in all the treatments. Cells were incubated at 37°C and 5% CO2 for 72 h. Then, 10 μl of CCK8 was added to each well. The plates were incubated at 37°C for 2 h, and the plates were recorded by measuring the absorbance at 450 nm with the reference wavelength of 630 nm using an EnVisionMultilabel Reader (PerkinElmer). The IC50 values were calculated and determined by the concentration causing a half-maximal percent activity. All assays were conducted with three parallel samples and three repetitions.
Next, several compounds with submicromolar level of IDO1 inhibitory activities were chosen for further study. Human renal epithelial cell (293T) was chosen for CCK-8 assay to evaluation the bioactivity of these compounds.

[3] = tested on: IDO1; design: method as in Nelp et al., 2018; conditions: previously reported; ref Nelp et al., 2018; cited from earlier work

T1 sequence (P14902 whole entry): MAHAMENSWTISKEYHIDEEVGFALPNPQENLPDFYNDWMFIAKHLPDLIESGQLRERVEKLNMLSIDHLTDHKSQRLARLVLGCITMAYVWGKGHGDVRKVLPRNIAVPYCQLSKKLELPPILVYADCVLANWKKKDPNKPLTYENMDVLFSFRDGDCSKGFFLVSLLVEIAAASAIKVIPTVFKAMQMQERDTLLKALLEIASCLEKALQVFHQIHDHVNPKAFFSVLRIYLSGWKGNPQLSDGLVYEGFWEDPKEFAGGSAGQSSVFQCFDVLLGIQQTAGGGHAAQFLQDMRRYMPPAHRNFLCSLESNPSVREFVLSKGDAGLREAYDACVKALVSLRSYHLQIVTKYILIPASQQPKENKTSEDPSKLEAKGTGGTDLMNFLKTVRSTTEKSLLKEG

SMILES	IC50 [1] [µM]	IC50 [2] [µM]	IC50 [3] [µM]
c1ccc(-n2cc(-c3cccc(Nc4ncnc5cc6c(cc45)OCCOCCOCCO6)c3)nn2)cc1 [a6, (7,8,10,11,13,14-Hexahydro-6,9,12,15-tetraoxa-1,3-diaza-cyclododeca[b]naphthalen-4-yl)-[3-(1-phenyl-1H-[1,2,3]triazol-4-yl)-phenyl]-amine]	0.77 ± 0.13	42.8 ± 11.8	
Ic1ccccc1Cn1cc(-c2cccc(Nc3ncnc4cc5c(cc34)OCCOCCOCCO5)c2)nn1 [a16, (7,8,10,11,13,14-Hexahydro-6,9,12,15-tetraoxa-1,3-diaza-cyclododeca[b]naphthalen-4-yl)-{3-[1-(2-iodo-benzyl)-1H-[1,2,3]triazol-4-yl]-phenyl}-amine]	1.51 ± 0.11		
Ic1ccccc1-n1cc(-c2cccc(Nc3ncnc4cc5c(cc34)OCCOCCOCCO5)c2)nn1 [a8, (7,8,10,11,13,14-Hexahydro-6,9,12,15-tetraoxa-1,3-diaza-cyclododeca[b]naphthalen-4-yl)-{3-[1-(2-iodo-phenyl)-1H-[1,2,3]triazol-4-yl]-phenyl}-amine]	2.5 ± 0.43		
Cc1ccc(Cn2cc(-c3cccc(Nc4ncnc5cc6c(cc45)OCCOCCOCCO6)c3)nn2)cc1 [a15, (7,8,10,11,13,14-Hexahydro-6,9,12,15-tetraoxa-1,3-diaza-cyclododeca[b]naphthalen-4-yl)-{3-[1-(4-methyl-benzyl)-1H-[1,2,3]triazol-4-yl]-phenyl}-amine]	0.59 ± 0.05	0.16 ± 0.05	
COc1cccc(-n2cc(-c3cccc(Nc4ncnc5cc6c(cc45)OCCOCCOCCO6)c3)nn2)c1 [a9, (7,8,10,11,13,14-Hexahydro-6,9,12,15-tetraoxa-1,3-diaza-cyclododeca[b]naphthalen-4-yl)-{3-[1-(3-methoxy-phenyl)-1H-[1,2,3]triazol-4-yl]-phenyl}-amine]	1.41 ± 0.08		
c1ccc(Cn2cc(-c3cccc(Nc4ncnc5cc6c(cc45)OCCOCCOCCO6)c3)nn2)cc1 [a18, [3-(1-Benzyl-1H-[1,2,3]triazol-4-yl)-phenyl]-(7,8,10,11,13,14-hexahydro-6,9,12,15-tetraoxa-1,3-diaza-cyclododeca[b]naphthalen-4-yl)-amine]	0.56 ± 0.16	3.08 ± 0.59	
COc1ccccc1-n1cc(-c2cccc(Nc3ncnc4cc5c(cc34)OCCOCCOCCO5)c2)nn1 [a4, (7,8,10,11,13,14-Hexahydro-6,9,12,15-tetraoxa-1,3-diaza-cyclododeca[b]naphthalen-4-yl)-{3-[1-(2-methoxy-phenyl)-1H-[1,2,3]triazol-4-yl]-phenyl}-amine]	1.32 ± 0.17		
FC(F)(F)c1ccc(-n2cc(-c3cccc(Nc4ncnc5cc6c(cc45)OCCOCCOCCO6)c3)nn2)cc1 [a12, (7,8,10,11,13,14-Hexahydro-6,9,12,15-tetraoxa-1,3-diaza-cyclododeca[b]naphthalen-4-yl)-{3-[1-(4-trifluoromethyl-phenyl)-1H-[1,2,3]triazol-4-yl]-phenyl}-amine]	> 100		
Clc1cccc(-n2cc(-c3cccc(Nc4ncnc5cc6c(cc45)OCCOCCOCCO6)c3)nn2)c1 [a7, {3-[1-(3-Chloro-phenyl)-1H-[1,2,3]triazol-4-yl]-phenyl}-(7,8,10,11,13,14-hexahydro-6,9,12,15-tetraoxa-1,3-diaza-cyclododeca[b]naphthalen-4-yl)-amine]	2.82 ± 0.26	3.1 ± 0.2	
C#Cc1cccc(Nc2ncnc3cc4c(cc23)OCCOCCOCCO4)c1 [icotinib]	2.57 ± 0.44		
COc1cccc(Cn2cc(-c3cccc(Nc4ncnc5cc6c(cc45)OCCOCCOCCO6)c3)nn2)c1 [a20, (7,8,10,11,13,14-Hexahydro-6,9,12,15-tetraoxa-1,3-diaza-cyclododeca[b]naphthalen-4-yl)-{3-[1-(3-methoxy-benzyl)-1H-[1,2,3]triazol-4-yl]-phenyl}-amine]	0.76 ± 0.07	3.3 ± 1.3	
Brc1ccc(-n2cc(-c3cccc(Nc4ncnc5cc6c(cc45)OCCOCCOCCO6)c3)nn2)cc1 [a10, {3-[1-(4-Bromo-phenyl)-1H-[1,2,3]triazol-4-yl]-phenyl}-(7,8,10,11,13,14-hexahydro-6,9,12,15-tetraoxa-1,3-diaza-cyclododeca[b]naphthalen-4-yl)-amine]	2.79 ± 0.46		
Cc1ccccc1Cn1cc(-c2cccc(Nc3ncnc4cc5c(cc34)OCCOCCOCCO5)c2)nn1 [a14, (7,8,10,11,13,14-Hexahydro-6,9,12,15-tetraoxa-1,3-diaza-cyclododeca[b]naphthalen-4-yl)-{3-[1-(2-methyl-benzyl)-1H-[1,2,3]triazol-4-yl]-phenyl}-amine]	0.79 ± 0.21	3.35 ± 0.89	
Clc1ccccc1-n1cc(-c2cccc(Nc3ncnc4cc5c(cc34)OCCOCCOCCO5)c2)nn1 [a5, {3-[1-(2-Chloro-phenyl)-1H-[1,2,3]triazol-4-yl]-phenyl}-(7,8,10,11,13,14-hexahydro-6,9,12,15-tetraoxa-1,3-diaza-cyclododeca[b]naphthalen-4-yl)-amine]	4.88 ± 0.42		

More lines, main results first:

IC50 [1] [µM]	SMILES	IC50 [2] [µM]	IC50 [3] [µM]
0.68 ± 0.44	Brc1cc(Br)cc(Cn2cc(-c3cccc(Nc4ncnc5cc6c(cc45)OCCOCCOCCO6)c3)nn2)c1 [a21, {3-[1-(3,5-Dibromo-benzyl)-1H-[1,2,3]triazol-4-yl]-phenyl}-(7,8,10,11,13,14-hexahydro-6,9,12,15-tetraoxa-1,3-diaza-cyclododeca[b]naphthalen-4-yl)-amine]	0.74 ± 0.15	
18.2 ± 1.47	Fc1ccc(-n2cc(-c3cccc(Nc4ncnc5cc6c(cc45)OCCOCCOCCO6)c3)nn2)cc1 [a3, {3-[1-(4-Fluoro-phenyl)-1H-[1,2,3]triazol-4-yl]-phenyl}-(7,8,10,11,13,14-hexahydro-6,9,12,15-tetraoxa-1,3-diaza-cyclododeca[b]naphthalen-4-yl)-amine]		
0.37 ± 0.02	Brc1cccc(Cn2cc(-c3cccc(Nc4ncnc5cc6c(cc45)OCCOCCOCCO6)c3)nn2)c1 [a17, {3-[1-(3-Bromo-benzyl)-1H-[1,2,3]triazol-4-yl]-phenyl}-(7,8,10,11,13,14-hexahydro-6,9,12,15-tetraoxa-1,3-diaza-cyclododeca[b]naphthalen-4-yl)-amine]	3.1 ± 0.2	
4.25 ± 0.08	Fc1cccc(-n2cc(-c3cccc(Nc4ncnc5cc6c(cc45)OCCOCCOCCO6)c3)nn2)c1 [a1, {3-[1-(3-Fluoro-phenyl)-1H-[1,2,3]triazol-4-yl]-phenyl}-(7,8,10,11,13,14-hexahydro-6,9,12,15-tetraoxa-1,3-diaza-cyclododeca[b]naphthalen-4-yl)-amine]		
1 ± 0.49	Brc1ccccc1-n1cc(-c2cccc(Nc3ncnc4cc5c(cc34)OCCOCCOCCO5)c2)nn1 [a11, {3-[1-(2-Bromo-phenyl)-1H-[1,2,3]triazol-4-yl]-phenyl}-(7,8,10,11,13,14-hexahydro-6,9,12,15-tetraoxa-1,3-diaza-cyclododeca[b]naphthalen-4-yl)-amine]		
4.62 ± 0.19	Fc1ccccc1Cn1cc(-c2cccc(Nc3ncnc4cc5c(cc34)OCCOCCOCCO5)c2)nn1 [a13, {3-[1-(2-Fluoro-benzyl)-1H-[1,2,3]triazol-4-yl]-phenyl}-(7,8,10,11,13,14-hexahydro-6,9,12,15-tetraoxa-1,3-diaza-cyclododeca[b]naphthalen-4-yl)-amine]		
2.9 ± 0.37	Clc1ccc(-n2cc(-c3cccc(Nc4ncnc5cc6c(cc45)OCCOCCOCCO6)c3)nn2)cc1 [a2, {3-[1-(4-Chloro-phenyl)-1H-[1,2,3]triazol-4-yl]-phenyl}-(7,8,10,11,13,14-hexahydro-6,9,12,15-tetraoxa-1,3-diaza-cyclododeca[b]naphthalen-4-yl)-amine]		
1.5 ± 0.45	Brc1ccccc1Cn1cc(-c2cccc(Nc3ncnc4cc5c(cc34)OCCOCCOCCO5)c2)nn1 [a19, {3-[1-(2-Bromo-benzyl)-1H-[1,2,3]triazol-4-yl]-phenyl}-(7,8,10,11,13,14-hexahydro-6,9,12,15-tetraoxa-1,3-diaza-cyclododeca[b]naphthalen-4-yl)-amine]		
0.81 ± 0.35	Fc1ccc(CCn2cc(-c3cccc(Nc4ncnc5cc6c(cc45)OCCOCCOCCO6)c3)nn2)cc1 [a22, (3-{1-[2-(4-Fluoro-phenyl)-ethyl]-1H-[1,2,3]triazol-4-yl}-phenyl)-(7,8,10,11,13,14-hexahydro-6,9,12,15-tetraoxa-1,3-diaza-cyclododeca[b]naphthalen-4-yl)-amine]	2.6 ± 0.17	
